Source: patent US7368567B2, “Arylsulfonyl benzodioxanes, benzoxazines and benzothiazines as 5-HT6 antagonists” (Roche Palo Alto LLC, priority 2004, dated 2008)

How the values were obtained:
[1] = biological target: T1, recombinant human 5-HT6 receptor (Homo sapiens, UniProt P50406); assay: Radioligand binding, [3H]LSD competition in HEK293 cell membranes; details: [3H]LSD displacement, 37° C., pH 7.4, read-out: pKi for the 5-HT6 receptor (converted)
T1 construct: expressed in transfected cells
Experimental: The binding activity of compounds of this invention in vitro was determined as follows. Duplicate determinations of 5-HT6 ligand affinity were made by competing for binding of [^3H]LSD in cell membranes derived from HEK293 cells stably expressing recombinant human 5-HT6 receptor. Duplicate determinations of 5-HT2A ligand affinity were made by competing for binding of [^3H]Ketanserin (3-(2-(4-(4-fluorobenzoyl)piperidinol)ethyl)-2,4(1H,3H)-quinazolinedione) in cell membranes derived from CHO—K1 cells stably expressing recombinant human 5-HT2A receptor. Membranes were prepared from HEK 293 cell lines by the method described by Monsma et al., Molecular Pharmacology, Vol. 43 pp. 320-327 (1993), and from CHO—K1 cell lines as described by Bonhaus et al., Br J Pharmacol. June;1 15(4):622-8 (1995).
For estimation of affinity at the 5-HT6 receptor, all determinations were made in assay buffer containing 50 mM Tris-HCl, 10 mM MgSO4, 0.5 mM EDTA, 1 mM ascorbic acid, pH 7.4 at 37° C., in a 250 microliter reaction volume. […]
Assay tubes containing [^3H] […] LSD or [^3H]Ketanserin were determined as radioactive counts per minute using Packard TopCount.
Displacement of [^3H]LSD or [^3H]Ketanserin from the binding sites was quantified by fitting concentration-binding data to a 4-parameter logistic equation: […]

T1 sequence (P50406 whole entry): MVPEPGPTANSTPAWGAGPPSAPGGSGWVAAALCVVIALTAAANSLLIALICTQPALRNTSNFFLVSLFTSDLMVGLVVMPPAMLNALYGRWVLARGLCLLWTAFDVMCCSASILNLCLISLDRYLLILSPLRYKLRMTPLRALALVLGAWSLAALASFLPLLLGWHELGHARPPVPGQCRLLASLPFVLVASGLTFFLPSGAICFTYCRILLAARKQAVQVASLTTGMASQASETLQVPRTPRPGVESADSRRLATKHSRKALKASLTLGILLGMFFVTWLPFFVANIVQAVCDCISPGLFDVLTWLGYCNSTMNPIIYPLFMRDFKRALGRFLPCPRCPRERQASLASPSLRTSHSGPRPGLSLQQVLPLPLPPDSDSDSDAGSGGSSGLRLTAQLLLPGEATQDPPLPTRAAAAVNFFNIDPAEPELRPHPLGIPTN

Row | SMILES | melting point [°C] | Ki [1] [nM]
1 | CNCC1COc2ccc(S(=O)(=O)c3ccccc3)cc2O1 (racemic) [Compound 1, (+−)-(7-Benzenesulfonyl-2,3-dihydro-benzo[1,4]dioxin-2-ylmethyl)-methyl-amine] | 198 to 199.4 | 
2 | O=S(=O)(c1cccc(F)c1)c1ccc2c(c1)O[C@H](CN1CC1)CO2 (stereo in doubt) | 215.4 to 217.2 | 
3 | O=S(=O)(c1ccccc1)c1ccc2c(c1)O[C@@H](CN1CC1)CO2 (stereo in doubt) | 203.9 to 206.6 | 
4 | O=S(=O)(c1cccc(F)c1)c1ccc2c(c1)O[C@@H](CNCc1ccccc1)CO2 (stereo in doubt) [Compound 11, Benzyl-[7-(3-fluoro-benzenesulfonyl)-2,3-dihydro-benzo[1,4]dioxin-2-ylmethyl]-amine] | 195.1 to 197.1 | 
5 | CNC[C@H]1COc2ccc(S(=O)(=O)c3ccc(C)cc3)cc2O1 (stereo in doubt) [Compound 12, Methyl-[7-(toluene-4-sulfonyl)-2,3-dihydro-benzo[1,4]dioxin-2-ylmethyl]-amine] | 213 to 214.1 | 
6 | CCNC[C@@H]1COc2ccc(S(=O)(=O)c3cccc(F)c3)cc2O1 (stereo in doubt) [Compound 13, Ethyl-[7-(3-fluoro-benzenesulfonyl)-2,3-dihydro-benzo[1,4]dioxin-2-ylmethyl]-amine] | 247.5 to 251.3 | 
7 | CN(C)C[C@@H]1COc2ccc(S(=O)(=O)c3cccc(F)c3)cc2O1 (stereo in doubt) [Compound 14, [7-(3-Fluoro-benzenesulfonyl)-2,3-dihydro-benzo[1,4]dioxin-2-ylmethyl]-dimethyl-amine] | 228.7 to 231.3 | 
8 | CC(C)NC[C@@H]1COc2ccc(S(=O)(=O)c3cccc(F)c3)cc2O1 (stereo in doubt) [Compound 15, [7-(3-Fluoro-benzenesulfonyl)-2,3-dihydro-benzo[1,4]dioxin-2-ylmethyl]-isopropyl-amine] | 242.4 to 243.8 | 
9 | O=S(=O)(c1cccc(F)c1)c1ccc2c(c1)O[C@H](CN1CCC1)CO2 (stereo in doubt) [Compound 16, 1-[7-(3-Fluoro-benzenesulfonyl)-2,3-dihydro-benzo[1,4]dioxin-2-ylmethyl]-azetidine] | 100.8 to 108.3 | 
10 | COCCNC[C@@H]1COc2ccc(S(=O)(=O)c3cccc(F)c3)cc2O1 (stereo in doubt) [Compound 17, [7-(3-Fluoro-benzenesulfonyl)-2,3-dihydro-benzo[1,4]dioxin-2-ylmethyl]-(2-methoxy-ethyl)-amine] | 193 to 196.9 | 
11 | O=S(=O)(c1ccccc1)c1ccc2c(c1)O[C@@H](CNCc1ccccc1)CO2 (stereo in doubt) [Compound 21, (7-Benzenesulfonyl-2,3-dihydro-benzo[1,4]dioxin-2-ylmethyl)-benzyl-amine] | 220.9 to 224.9 | 
12 | CN(C)C[C@H]1COc2ccc(S(=O)(=O)c3ccccc3)cc2O1 (stereo in doubt) [Compound 23, (7-Benzenesulfonyl-2,3-dihydro-benzo[1,4]dioxin-2-ylmethyl)-dimethyl-amine] | 232 to 233.5 | 
13 | CC(C)NC[C@H]1COc2ccc(S(=O)(=O)c3ccccc3)cc2O1 (stereo in doubt) [Compound 24, (7-Benzenesulfonyl-2,3-dihydro-benzo[1,4]dioxin-2-ylmethyl)-isopropyl-amine] | 224.9 to 228.8 | 
14 | COCCNC[C@H]1COc2ccc(S(=O)(=O)c3ccccc3)cc2O1 (stereo in doubt) [Compound 26, (7-Benzenesulfonyl-2,3-dihydro-benzo[1,4]dioxin-2-ylmethyl)-(2-methoxy-ethyl)-amine] | 169.3 to 171.9 | 
15 | CCNC[C@H]1COc2ccc(S(=O)(=O)c3ccccc3)cc2O1 (stereo in doubt) [Compound 27, (7-Benzenesulfonyl-2,3-dihydro-benzo[1,4]dioxin-2-ylmethyl)-ethyl-amine] | 242.2 to 246.7 | 
16 | CNC[C@@H]1COc2ccc(S(=O)(=O)c3cccc(C)c3)cc2O1 (stereo in doubt) [Compound 28, Methyl-[7-(toluene-3-sulfonyl)-2,3-dihydro-benzo[1,4]dioxin-2-ylmethyl]-amine] | 99.9 to 106.1 | 

Row | SMILES | melting point [°C] | Ki [1] [nM]
17 | CNC[C@@H]1COc2ccc(S(=O)(=O)c3ccccc3C)cc2O1 (stereo in doubt) [Compound 29, Methyl-[7-(toluene-2-sulfonyl)-2,3-dihydro-benzo[1,4]dioxin-2-ylmethyl]-amine] | 169 to 170.8 | 
18 | O=S(=O)(c1ccccc1)c1ccc2c(c1)O[C@@H](CN1CCNCC1)CO2 (stereo in doubt) [Compound 30, 1-(7-Benzenesulfonyl-2,3-dihydro-benzo[1,4]dioxin-2-ylmethyl)-piperazine] | 279.2 to 279.4 | 
19 | N=C(N)NC[C@H]1COc2ccc(S(=O)(=O)c3ccccc3)cc2O1 (stereo in doubt) [Compound 31, N-(7-Benzenesulfonyl-2,3-dihydro-benzo[1,4]dioxin-2-ylmethyl)-guanidine] | 126.5 to 128.3 | 
20 | CN(O)C[C@H]1COc2ccc(S(=O)(=O)c3ccccc3)cc2O1 (stereo in doubt) [Compound 33, N-(7-Benzenesulfonyl-2,3-dihydro-benzo[1,4]dioxin-2-ylmethyl)-N-methylhydroxylamine] | 199.2 to 200.8 | 
21 | O=S(=O)(c1ccccc1)c1ccc2c(c1)O[C@@H](Cn1ccnc1)CO2 (stereo in doubt) [Compound 34, 1-(7-Benzenesulfonyl-2,3-dihydro-benzo[1,4]dioxin-2-ylmethyl)-1H-imidazole] | 88 to 90 | 
22 | O=S(=O)(c1ccccc1)c1ccc2c(c1)O[C@@H](CN1CCC(O)C1)CO2 (stereo in doubt) [Compound 37, 1-(7-Benzenesulfonyl-2,3-dihydro-benzo[1,4]dioxin-2-ylmethyl)-pyrrolidin-3-ol] | 94.7 to 96.4 | 
23 | CNC[C@H]1COc2ccc(S(=O)(=O)c3cccc(C#N)c3)cc2O1 (stereo in doubt) [Compound 38, 3-(3-Methylaminomethyl-2,3-dihydro-benzo[1,4]dioxine-6-sulfonyl)-benzonitrile] | 190.6 to 192.1 | 
24 | NC(=O)NC[C@H]1COc2ccc(S(=O)(=O)c3ccccc3)cc2O1 (stereo in doubt) [Compound 40, (7-Benzenesulfonyl-2,3-dihydro-benzo[1,4]dioxin-2-ylmethyl)-urea] | 104.9 to 105.7 | 
25 | CNC[C@@H]1COc2ccc(S(=O)(=O)c3ccccc3)cc2O1 [(7-Benzenesulfonyl-2,3-dihydro-benzo[1,4]dioxin-2-(R)-ylmethyl)-methyl-amine] |  | ~0.166
26 | CNC[C@H]1COc2ccc(S(=O)(=O)c3ccccc3)cc2O1 [Compound 2, (7-Benzenesulfonyl-2,3-dihydro-benzo[1,4]dioxin-2--(S)-ylmethyl)-methyl-amine] | 240 to 243.6 | 
27 | CNC[C@@H]1COc2cc(S(=O)(=O)c3ccccc3)ccc2O1 [Compound 4, (6-Benzenesulfonyl-2,3-dihydro-benzo[1,4]dioxin-2-(R)-ylmethyl)-methyl-amine] | 219.7 to 225.4 | 
28 | CNC[C@H]1COc2cc(S(=O)(=O)c3ccccc3)ccc2O1 [Compound 5, (6-Benzenesulfonyl-2,3-dihydro-benzo[1,4]dioxin-2-(S)-ylmethyl)-methyl-amine] | 218.2 to 220.5 | 
29 | CNC[C@@H]1COc2ccc(S(=O)(=O)c3cccc(F)c3)cc2O1 [Compound 8, [7-(3-Fluoro-benzenesulfonyl)-2,3-dihydro-benzo[1,4]dioxin-2-(R)-ylmethyl]-methyl-amine] | 250.1 to 254.3 | 
30 | NC[C@H]1COc2ccc(S(=O)(=O)c3cccc(F)c3)cc2O1 [Compound 9, C-[7-(3-Fluoro-benzenesulfonyl)-2,3-dihydro-benzo[1,4]dioxin-2-(S)-yl]-methylamine] | 224.9 to 227.9 | 
31 | O=S(=O)(c1ccccc1)c1ccc2c(c1)O[C@H](CN1CCCC1)CO2 [Compound 10, 1-(7-Benzenesulfonyl-2,3-dihydro-benzol[1,4]dioxin-2-(R)-ylmethyl)-pyrrolidine] | 75.8 to 112.7 | 
